# Legend:
# α-synuclein lesions = biological target: T1, α-synuclein lesions (Homo sapiens, UniProt P37840); assay: In vitro fluorescence microscope measurement of the sections subjected to autoradiography (DLB, MSA); settings: 30 μM, 50% ethanol, 30 minutes
# T1 construct: α-synuclein aggregates formed in the brain of the DLB patient; from tissue; host or cells: post-mortem human brain: amygdala of DLB patient (sections or homogenate); cerebellum of MSA patient
# Procedure: The section that had been subjected to the autoradiography was analyzed by fluorescent staining. Specifically, the section and 30 μM SPAL-T-06 were incubated in a 50% ethanol solution at room temperature for 30 minutes. Thereafter, the section was washed with a 50% ethanol solution for 5 minutes and with ultrapure water for 3 minutes. This washing was carried out twice. After the section was mounted in a mounting medium (VECTASHIELD H-1000), an image of an α-synuclein aggregate-enriched area on the section was obtained with use of a fluorescence microscope (DM4000 (excitation wavelength: 391 nm to 437 nm)). An adjacent brain section was also washed with a phosphate buffer solution, and then treated in an autoclave for antigen retrieval. After the section was subjected to immunohistochemical staining with an anti-phosphorylated α-synuclein monoclonal antibody (pS129, abcam, ab59264) (1:1000) and then mounted in a mounting medium (VECTASHIELD H-1000), images were obtained with use of fluorescence microscopes (BZ-X710, KEYENCE (excitation wavelength: 450 nm to 490 nm) and DM4000 (excitation wavelength: 460 nm to 500 nm)).
# α-synuclein aggregates = α-synuclein aggregates (Homo sapiens, UniProt P37840); assay: In vitro fluorescence microscope measurement, amygdala sections of DLB patient brain; set-up: α-synuclein aggregates formed in the brain of the DLB patient; from tissue; host or cells: post-mortem human brain: amygdala of DLB patient (sections or homogenate); cerebellum of MSA patient; settings: 30 μM test compound
# Excerpt: Postmortem human brains were obtained in autopsies carried out with respect to a patient with dementia with Lewy bodies (DLB) and a patient with Alzheimer's disease (AD). In a cryostat (HM560, Carl Zeiss), frozen tissue from the DLB patient was sliced into sections each having a thickness of 20 μm. Brain tissue from the AD patient was fixed in 10% neutral buffered formalin, embedded in a paraffin block, and sliced into sections each having a thickness of 6 μm.
# Postfixed fresh frozen sections of amygdala tissue obtained from the brain of the DLB patient and deparaffinized sections of formalin-fixed paraffin-embedded middle frontal gyrus tissue obtained from the brain of the AD patient were used. Each brain section and a 30 μM test compound were incubated in a 50% ethanol solution at room temperature for 30 minutes. Thereafter, the section was washed with a 50% ethanol solution for 5 minutes and with ultrapure water for 3 minutes. This washing was carried out twice. After the section was mounted in a mounting medium (VECTASHIELD H-1000, Vector Laboratories), an image of a lesion-enriched area on the section was obtained with use of a fluorescence microscope (DM4000, Leica, excitation wavelength: 391 nm to 437 nm). In FIG. 1, each arrowhead indicates fluorescence from the compound binding to α-synuclein aggregates in the brain of the DLB patient, each arrow indicates fluorescence from the compound binding to amyloid-β aggregates in the brain of the AD patient, and an asterisk indicates fluorescence from the compound binding to tau aggregates in the brain of the AD patient. The fluorescence intensities of lesion-enriched areas and lesion-free areas (background) were quantified with use of analysis software (Image J). Note that SPAL-T-05 and SPAL-T-06 were each used as the test compound. Note also that BF-227 (2-(2-[2-dimethylaminothiazol-5-yl]ethenyl)-6-(2-[fluoro]ethoxy)benzoxazole (catalog No.: NP039-0)) and PBB3 (2-((1E,3E)-4-(6-(methylamino)pyridin-3-yl)buta-1,3-dienyl)benzo[d]thiazol-6-ol) (catalog No.: NP039-0), each available from NARD INSTITUTE, LTD., were each used as a control compound.
smiles,measurement,setting,value
"CNc1cnc(C#C/C=C/c2nc3ccc(OCC(O)CF)cc3s2)cn1 (stereo not drawn) [SPAL-T-06, (E)-1-fluoro-3-((2-(4-(5-(methylamino)pyrazin-2-yl)but-1-en-3-yn-1-yl)benzo[d]thiazol-6-yl)oxy)propan-2-ol]",binding to α-synuclein lesions in DLB and MSA brain sections (fluorescent staining),α-synuclein lesions,bound to α-synuclein lesions
same,binding to α-synuclein aggregates formed in the brain of the DLB patient (fluorescence),"α-synuclein aggregates; 50% ethanol, room temperature, 30 minutes, amygdala sections",reactivity greater than that of PBB3
same,binding selectivity: α-synuclein aggregates (DLB brain) versus tau aggregates or amyloid-β aggregates (AD brain),α-synuclein aggregates; fluorescence of lesion-enriched vs lesion-free areas,greater than binding of each of SPAL-T-06 and SPAL-T-05 to tau aggregates or amyloid-β aggregates

# — patent US12630544B2, “Compound, α-synuclein aggregate binder, and use thereof” (NATIONAL INSTITUTES FOR QUANTUM SCIENCE AND TECHNOLOGY, priority 2020, dated 2026)
